Assay results as given in patent US20090324754A1, “EUCALYPTUS EXTRACT, METHOD OF PREPARATION AND THERAPEUTIC USES THEREOF” (Pierre Fabre Medicament, priority 2006, published 2009).

Biological target: T1, serotonin reuptake (Rattus norvegicus, UniProt P31652)
T1 construct: Synapses obtained from rat brains; from tissue; host or cells: rat brain synapses (synaptosomes)
Assay: Serotonin (5-HT) reuptake, [3H]-serotonin uptake in rat brain synapses
Format: biochemical
Conditions: 0.3 μg of extract/ml of solution
Method: The uptake tests were carried out in vitro on synapses of rats.
The baseline activity is determined by incubating the same mixture for 15 minutes at 37° C. in the presence of 10 μM imipramine in order to block the reuptake.
Following the incubation, the samples are filtered rapidly in vacuo through glass-fibre filters (GB/B, Packard) and rinsed twice with ice-cold incubation buffer in order to eliminate free [^3H]-serotonin. The filters are dried and the retained radioactivity is measured by means of a scintillation counter (Topcount, Packard) using a scintillation cocktail (Microscint O, Packard).
The results are expressed as a percent inhibition of the control uptake of [^3H]-serotonin (see Table 1)

T1 sequence (P31652 whole entry): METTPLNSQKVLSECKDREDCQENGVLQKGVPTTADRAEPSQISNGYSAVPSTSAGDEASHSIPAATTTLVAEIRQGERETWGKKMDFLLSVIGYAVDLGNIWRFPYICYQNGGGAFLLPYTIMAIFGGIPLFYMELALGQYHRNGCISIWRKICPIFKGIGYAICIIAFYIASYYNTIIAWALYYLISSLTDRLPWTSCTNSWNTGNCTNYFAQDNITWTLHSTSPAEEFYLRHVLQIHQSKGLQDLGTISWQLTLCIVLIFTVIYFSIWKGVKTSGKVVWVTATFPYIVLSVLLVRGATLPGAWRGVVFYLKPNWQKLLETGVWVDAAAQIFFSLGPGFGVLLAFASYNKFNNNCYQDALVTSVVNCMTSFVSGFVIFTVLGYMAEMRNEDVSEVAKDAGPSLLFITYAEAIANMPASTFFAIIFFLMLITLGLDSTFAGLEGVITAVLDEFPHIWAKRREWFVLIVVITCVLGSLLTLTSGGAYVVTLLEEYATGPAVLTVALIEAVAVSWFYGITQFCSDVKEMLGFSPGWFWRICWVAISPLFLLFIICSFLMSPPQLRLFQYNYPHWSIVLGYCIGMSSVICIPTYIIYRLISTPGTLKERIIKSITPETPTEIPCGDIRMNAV

% inhibition of serotonin reuptake: 103.8%
Compound: C=C1CCC2C(C3C1CCC3(C)C(CC(C)C)c1c(O)c(C=O)c(O)c(C=O)c1O)C2(C)C (stereo not shown) [Macrocarpal G, 5-(1-(3,3,11-trimethyl-7-methylene-tricyclo(6.3.0.0(2,4))undec-11-yl)-3-methylbutyl)-2,4,6-trihydroxybenzene-1,3-dicarbaldehyde]
